# Test results as given in patent publication US20190263796A1, “LIM KINASE INHIBITORS, PHARMACEUTICAL COMPOSITION AND METHOD OF USE IN LIMK-MEDIATED DISEASES” (CELLIPSE, priority 2016, published 2019).
# Assays:
# Assay type in all cases: biochemical
# LIMK1(h) = LIMK1(h) (Homo sapiens, UniProt P53667); experiment: KinaseProfiler panel: LIMK1(h); parameters: purchased Merck-Millipore (KinaseProfiler panel service); conditions: residual activity, 5 μM inhibitor, Km ATP
# Procedure: (§1) Kinase selectivity was performed on a panel of 58 recombinant protein kinases. The assays were performed in the presence of 5 μM inhibitor at the respective Km ATP for each kinase, using the KinaseProfiler panel service (Merck-Millipore). Residual activity measured in the presence of […] inhibitor is expressed as the percent of activity determined in the absence of inhibitor.
# LKB1(h) = target: T1, LKB1(h) (Homo sapiens, UniProt Q15831); experiment: KinaseProfiler panel: LKB1(h); conditions: residual activity, 5 μM inhibitor, Km ATP
# T1 construct: purchased Merck-Millipore (KinaseProfiler panel service)
# Procedure: as §1
# TrkC(h) = target: T2, TrkC(h) (Homo sapiens, UniProt Q16288); experiment: KinaseProfiler panel: TrkC(h); conditions: residual activity, 5 μM inhibitor, Km ATP
# T2 construct: purchased Merck-Millipore (KinaseProfiler panel service)
# T2 sequence (Q16288 32-839): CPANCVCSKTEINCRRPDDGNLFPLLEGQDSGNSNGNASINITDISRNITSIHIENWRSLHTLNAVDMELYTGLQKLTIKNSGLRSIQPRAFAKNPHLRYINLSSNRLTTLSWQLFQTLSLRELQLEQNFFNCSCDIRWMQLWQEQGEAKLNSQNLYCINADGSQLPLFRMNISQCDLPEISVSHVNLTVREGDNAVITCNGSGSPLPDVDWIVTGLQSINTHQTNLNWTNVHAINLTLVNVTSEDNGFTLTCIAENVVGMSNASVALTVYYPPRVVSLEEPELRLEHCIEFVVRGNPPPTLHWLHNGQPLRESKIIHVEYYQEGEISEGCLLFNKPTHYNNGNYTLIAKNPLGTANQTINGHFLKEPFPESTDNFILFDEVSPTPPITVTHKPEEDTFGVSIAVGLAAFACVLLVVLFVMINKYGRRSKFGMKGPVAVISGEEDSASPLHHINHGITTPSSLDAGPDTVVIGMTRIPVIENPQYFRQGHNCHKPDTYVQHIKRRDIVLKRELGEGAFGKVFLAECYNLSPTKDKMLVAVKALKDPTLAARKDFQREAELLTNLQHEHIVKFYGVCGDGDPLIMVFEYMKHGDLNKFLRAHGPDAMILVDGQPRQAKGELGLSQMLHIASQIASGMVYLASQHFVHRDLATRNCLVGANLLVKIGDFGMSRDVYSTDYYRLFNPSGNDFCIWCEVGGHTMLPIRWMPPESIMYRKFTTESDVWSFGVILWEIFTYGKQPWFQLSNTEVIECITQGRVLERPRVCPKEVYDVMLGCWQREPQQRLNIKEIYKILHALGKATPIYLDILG
# Procedure: as §1
# PAK4(h) = target: T3, PAK4(h) (Homo sapiens, UniProt O96013); experiment: KinaseProfiler panel: PAK4(h); conditions: residual activity, 5 μM inhibitor, Km ATP
# T3 construct: purchased Merck-Millipore (KinaseProfiler panel service)
# Procedure: as §1
# EGFR(h) = target: T4, EGFR(h) (Homo sapiens, UniProt P00533); experiment: KinaseProfiler panel: EGFR(h); conditions: residual activity, 5 μM inhibitor, Km ATP
# T4 construct: purchased Merck-Millipore (KinaseProfiler panel service)
# T4 sequence (P00533 25-1210): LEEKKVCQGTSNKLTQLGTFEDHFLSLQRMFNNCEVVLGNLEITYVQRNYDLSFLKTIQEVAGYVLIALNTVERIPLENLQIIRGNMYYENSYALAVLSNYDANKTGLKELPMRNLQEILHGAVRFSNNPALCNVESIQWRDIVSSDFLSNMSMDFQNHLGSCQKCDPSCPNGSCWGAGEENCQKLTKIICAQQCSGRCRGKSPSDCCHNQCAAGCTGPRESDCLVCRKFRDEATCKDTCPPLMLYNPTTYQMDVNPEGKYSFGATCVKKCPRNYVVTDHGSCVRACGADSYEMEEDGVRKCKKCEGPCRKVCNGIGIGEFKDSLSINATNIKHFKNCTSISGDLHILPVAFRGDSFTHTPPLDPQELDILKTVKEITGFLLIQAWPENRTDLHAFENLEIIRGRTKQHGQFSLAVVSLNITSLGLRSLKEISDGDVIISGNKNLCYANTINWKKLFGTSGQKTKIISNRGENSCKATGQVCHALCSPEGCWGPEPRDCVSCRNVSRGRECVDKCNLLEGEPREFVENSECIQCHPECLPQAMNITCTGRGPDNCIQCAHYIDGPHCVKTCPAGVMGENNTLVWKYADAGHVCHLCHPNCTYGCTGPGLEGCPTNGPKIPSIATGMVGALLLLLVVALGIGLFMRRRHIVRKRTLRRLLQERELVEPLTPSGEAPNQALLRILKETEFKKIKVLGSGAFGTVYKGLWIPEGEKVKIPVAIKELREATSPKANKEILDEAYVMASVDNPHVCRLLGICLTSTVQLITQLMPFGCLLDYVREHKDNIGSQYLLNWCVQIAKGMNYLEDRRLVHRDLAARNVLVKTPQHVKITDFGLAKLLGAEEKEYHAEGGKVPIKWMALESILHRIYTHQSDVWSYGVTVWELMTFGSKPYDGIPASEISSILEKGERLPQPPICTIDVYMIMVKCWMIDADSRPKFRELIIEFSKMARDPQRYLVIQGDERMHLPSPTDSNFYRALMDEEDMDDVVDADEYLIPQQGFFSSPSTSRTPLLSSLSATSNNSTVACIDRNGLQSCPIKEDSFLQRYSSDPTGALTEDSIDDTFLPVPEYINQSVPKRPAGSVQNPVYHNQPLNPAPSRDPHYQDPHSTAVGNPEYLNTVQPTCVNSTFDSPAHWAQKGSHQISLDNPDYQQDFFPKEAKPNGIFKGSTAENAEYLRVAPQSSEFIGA
# Procedure: as §1
# B-Raf(V599E)(h) = target: T5, B-Raf(V599E)(h) (Homo sapiens, UniProt P15056, V600E); experiment: KinaseProfiler panel: B-Raf(V599E)(h); conditions: residual activity, 5 μM inhibitor, Km ATP
# T5 construct: purchased Merck-Millipore (KinaseProfiler panel service)
# Procedure: as §1
# CaMKIIδ(h) = target: T6, CaMKIIδ(h) (Homo sapiens, UniProt Q13557); experiment: KinaseProfiler panel: CaMKIIδ(h); conditions: residual activity, 5 μM inhibitor, Km ATP
# T6 construct: purchased Merck-Millipore (KinaseProfiler panel service)
# Procedure: as §1
# Flt3(D835Y)(h) = target: T7, Flt3(D835Y)(h) (Homo sapiens, UniProt P36888, D835Y); experiment: KinaseProfiler panel: Flt3(D835Y)(h); conditions: residual activity, 5 μM inhibitor, Km ATP
# T7 construct: purchased Merck-Millipore (KinaseProfiler panel service)
# Procedure: as §1
# TrkA(h) = target: T8, TrkA(h) (Homo sapiens, UniProt P04629); experiment: KinaseProfiler panel: TrkA(h); conditions: residual activity, 5 μM inhibitor, Km ATP
# T8 construct: purchased Merck-Millipore (KinaseProfiler panel service)
# Procedure: as §1
# MRCKα(h) = target: T9, MRCKα(h) (Homo sapiens, UniProt Q5VT25); experiment: KinaseProfiler panel: MRCKα(h); conditions: residual activity, 5 μM inhibitor, Km ATP
# T9 construct: purchased Merck-Millipore (KinaseProfiler panel service)
# Procedure: as §1
# cKit(D816H)(h) = target: T10, cKit(D816H)(h) (Homo sapiens, UniProt P10721, D816H); experiment: KinaseProfiler panel: cKit(D816H)(h); conditions: residual activity, 5 μM inhibitor, Km ATP
# T10 construct: purchased Merck-Millipore (KinaseProfiler panel service)
# Procedure: as §1
# PKBα(h) = target: T11, PKBα(h) (Homo sapiens, UniProt P31749); experiment: KinaseProfiler panel: PKBα(h); conditions: residual activity, 5 μM inhibitor, Km ATP
# T11 construct: purchased Merck-Millipore (KinaseProfiler panel service)
# T11 sequence (P31749 whole entry): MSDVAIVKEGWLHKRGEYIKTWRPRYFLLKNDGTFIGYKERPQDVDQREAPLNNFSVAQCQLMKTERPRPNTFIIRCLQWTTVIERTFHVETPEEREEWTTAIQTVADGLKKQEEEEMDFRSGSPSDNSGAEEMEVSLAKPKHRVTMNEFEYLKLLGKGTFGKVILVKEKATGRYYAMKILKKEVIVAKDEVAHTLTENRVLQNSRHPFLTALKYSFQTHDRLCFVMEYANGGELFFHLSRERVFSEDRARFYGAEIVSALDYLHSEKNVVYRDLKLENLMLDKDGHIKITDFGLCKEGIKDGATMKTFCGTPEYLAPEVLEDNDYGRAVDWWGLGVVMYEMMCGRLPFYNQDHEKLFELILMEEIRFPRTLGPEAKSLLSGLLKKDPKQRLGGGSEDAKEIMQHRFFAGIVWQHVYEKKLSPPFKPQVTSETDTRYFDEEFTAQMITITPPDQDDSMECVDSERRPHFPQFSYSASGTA
# Procedure: as §1
# [1] = target: T12, PI3 Kinase (p110a(E542K)/p85a)(h) (Homo sapiens, UniProt P42336, E542K); experiment: KinaseProfiler panel: PI3 Kinase (p110a(E542K)/p85a)(h); conditions: residual activity, 5 μM inhibitor, Km ATP
# T12 construct: purchased Merck-Millipore (KinaseProfiler panel service)
# Procedure: as §1
# IGF-1R(h), activated = target: T13, IGF-1R(h), activated (Homo sapiens, UniProt P08069); experiment: KinaseProfiler panel: IGF-1R(h), activated; conditions: residual activity, 5 μM inhibitor, Km ATP
# T13 construct: purchased Merck-Millipore (KinaseProfiler panel service)
# Procedure: as §1
# CaMKIβ(h) = target: T14, CaMKIβ(h) (Homo sapiens, UniProt Q6P2M8); experiment: KinaseProfiler panel: CaMKIβ(h); conditions: residual activity, 5 μM inhibitor, Km ATP
# T14 construct: purchased Merck-Millipore (KinaseProfiler panel service)
# T14 sequence (Q6P2M8 whole entry): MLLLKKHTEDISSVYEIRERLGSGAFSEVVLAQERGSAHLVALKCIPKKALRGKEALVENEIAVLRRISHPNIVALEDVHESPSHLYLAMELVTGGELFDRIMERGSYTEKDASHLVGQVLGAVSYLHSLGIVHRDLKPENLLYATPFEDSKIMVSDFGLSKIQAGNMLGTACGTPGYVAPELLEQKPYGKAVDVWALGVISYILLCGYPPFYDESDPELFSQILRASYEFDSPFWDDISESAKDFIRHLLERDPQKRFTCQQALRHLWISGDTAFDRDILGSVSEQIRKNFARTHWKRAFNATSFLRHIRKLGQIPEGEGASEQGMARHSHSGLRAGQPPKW
# Procedure: as §1
# Flt4(h) = target: T15, Flt4(h) (Homo sapiens, UniProt P35916); experiment: KinaseProfiler panel: Flt4(h); conditions: residual activity, 5 μM inhibitor, Km ATP
# T15 construct: purchased Merck-Millipore (KinaseProfiler panel service)
# Procedure: as §1
# ALK(h) = target: T16, ALK(h) (Homo sapiens, UniProt Q9UM73); experiment: KinaseProfiler panel: ALK(h); conditions: residual activity, 5 μM inhibitor, Km ATP
# T16 construct: purchased Merck-Millipore (KinaseProfiler panel service)
# Procedure: as §1
# TrkB(h) = target: T17, TrkB(h) (Homo sapiens, UniProt Q16620); experiment: KinaseProfiler panel: TrkB(h); conditions: residual activity, 5 μM inhibitor, Km ATP
# T17 construct: purchased Merck-Millipore (KinaseProfiler panel service)
# Procedure: as §1
# Ret(h) = target: T18, Ret(h) (Homo sapiens, UniProt P07949); experiment: KinaseProfiler panel: Ret(h); conditions: residual activity, 5 μM inhibitor, Km ATP
# T18 construct: purchased Merck-Millipore (KinaseProfiler panel service)
# Procedure: as §1
# MKK4(m) = target: T19, MKK4(m) (Mus musculus, UniProt P47809); experiment: KinaseProfiler panel: MKK4(m); conditions: residual activity, 5 μM inhibitor, Km ATP
# T19 construct: purchased Merck-Millipore (KinaseProfiler panel service)
# Procedure: as §1
# Plk1(h) = target: T20, Plk1(h) (Homo sapiens, UniProt P53350); experiment: KinaseProfiler panel: Plk1(h); conditions: residual activity, 5 μM inhibitor, Km ATP
# T20 construct: purchased Merck-Millipore (KinaseProfiler panel service)
# Procedure: as §1
# PAK6(h) = target: T21, PAK6(h) (Homo sapiens, UniProt Q9NQU5); experiment: KinaseProfiler panel: PAK6(h); conditions: residual activity, 5 μM inhibitor, Km ATP
# T21 construct: purchased Merck-Millipore (KinaseProfiler panel service)
# Procedure: as §1
# PAK3(h) = target: T22, PAK3(h) (Homo sapiens, UniProt O75914); experiment: KinaseProfiler panel: PAK3(h); conditions: residual activity, 5 μM inhibitor, Km ATP
# T22 construct: purchased Merck-Millipore (KinaseProfiler panel service)
# Procedure: as §1
# SAPK2a(h) = target: T23, SAPK2a(h) (Homo sapiens, UniProt Q16539); experiment: KinaseProfiler panel: SAPK2a(h); conditions: residual activity, 5 μM inhibitor, Km ATP
# T23 construct: purchased Merck-Millipore (KinaseProfiler panel service)
# Procedure: as §1
# Flt1(h) = target: T24, Flt1(h) (Homo sapiens, UniProt P17948); experiment: KinaseProfiler panel: Flt1(h); conditions: residual activity, 5 μM inhibitor, Km ATP
# T24 construct: purchased Merck-Millipore (KinaseProfiler panel service)
# Procedure: as §1
# ROCK-II(h) = target: T25, ROCK-II(h) (Homo sapiens, UniProt O75116); experiment: KinaseProfiler panel: ROCK-II(h); conditions: residual activity, 5 μM inhibitor, Km ATP
# T25 construct: purchased Merck-Millipore (KinaseProfiler panel service)
# T25 sequence (O75116 whole entry): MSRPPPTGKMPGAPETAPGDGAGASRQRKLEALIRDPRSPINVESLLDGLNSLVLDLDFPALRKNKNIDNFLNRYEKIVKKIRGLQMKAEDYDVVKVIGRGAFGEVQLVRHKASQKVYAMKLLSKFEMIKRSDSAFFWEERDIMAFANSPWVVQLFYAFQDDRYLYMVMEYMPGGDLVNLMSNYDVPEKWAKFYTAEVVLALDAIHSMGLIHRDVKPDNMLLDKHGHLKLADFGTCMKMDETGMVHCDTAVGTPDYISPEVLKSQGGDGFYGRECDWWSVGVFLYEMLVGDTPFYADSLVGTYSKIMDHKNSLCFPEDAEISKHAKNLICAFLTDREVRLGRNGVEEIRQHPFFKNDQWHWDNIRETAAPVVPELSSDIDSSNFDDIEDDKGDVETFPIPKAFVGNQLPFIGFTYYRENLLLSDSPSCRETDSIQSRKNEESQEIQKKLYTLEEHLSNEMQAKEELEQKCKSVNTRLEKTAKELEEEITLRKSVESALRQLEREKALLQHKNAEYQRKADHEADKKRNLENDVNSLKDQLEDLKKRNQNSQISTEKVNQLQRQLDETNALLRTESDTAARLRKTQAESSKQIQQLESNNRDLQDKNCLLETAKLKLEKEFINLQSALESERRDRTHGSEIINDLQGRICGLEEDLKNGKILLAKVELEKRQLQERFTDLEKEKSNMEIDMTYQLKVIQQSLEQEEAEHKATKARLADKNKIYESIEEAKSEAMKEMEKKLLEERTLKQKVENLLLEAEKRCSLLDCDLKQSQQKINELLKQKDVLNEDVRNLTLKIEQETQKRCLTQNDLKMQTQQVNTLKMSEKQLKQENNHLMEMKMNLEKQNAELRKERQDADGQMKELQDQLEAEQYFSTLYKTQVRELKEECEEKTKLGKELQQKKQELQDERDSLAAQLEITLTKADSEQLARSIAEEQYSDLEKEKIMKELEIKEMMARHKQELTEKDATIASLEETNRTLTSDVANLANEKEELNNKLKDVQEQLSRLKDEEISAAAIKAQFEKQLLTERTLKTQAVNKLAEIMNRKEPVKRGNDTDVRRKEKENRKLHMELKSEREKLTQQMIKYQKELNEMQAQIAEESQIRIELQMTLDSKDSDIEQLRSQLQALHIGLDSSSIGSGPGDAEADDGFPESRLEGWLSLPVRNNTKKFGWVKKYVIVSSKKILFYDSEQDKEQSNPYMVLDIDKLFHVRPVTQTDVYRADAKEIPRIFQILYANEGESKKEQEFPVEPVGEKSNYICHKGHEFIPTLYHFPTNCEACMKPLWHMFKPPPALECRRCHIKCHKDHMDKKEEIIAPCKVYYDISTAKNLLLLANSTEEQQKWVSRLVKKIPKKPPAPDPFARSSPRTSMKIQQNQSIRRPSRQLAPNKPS
# Procedure: as §1
# Plk3(h) = target: T26, Plk3(h) (Homo sapiens, UniProt Q9H4B4); experiment: KinaseProfiler panel: Plk3(h); conditions: residual activity, 5 μM inhibitor, Km ATP
# T26 construct: purchased Merck-Millipore (KinaseProfiler panel service)
# T26 sequence (Q9H4B4 whole entry): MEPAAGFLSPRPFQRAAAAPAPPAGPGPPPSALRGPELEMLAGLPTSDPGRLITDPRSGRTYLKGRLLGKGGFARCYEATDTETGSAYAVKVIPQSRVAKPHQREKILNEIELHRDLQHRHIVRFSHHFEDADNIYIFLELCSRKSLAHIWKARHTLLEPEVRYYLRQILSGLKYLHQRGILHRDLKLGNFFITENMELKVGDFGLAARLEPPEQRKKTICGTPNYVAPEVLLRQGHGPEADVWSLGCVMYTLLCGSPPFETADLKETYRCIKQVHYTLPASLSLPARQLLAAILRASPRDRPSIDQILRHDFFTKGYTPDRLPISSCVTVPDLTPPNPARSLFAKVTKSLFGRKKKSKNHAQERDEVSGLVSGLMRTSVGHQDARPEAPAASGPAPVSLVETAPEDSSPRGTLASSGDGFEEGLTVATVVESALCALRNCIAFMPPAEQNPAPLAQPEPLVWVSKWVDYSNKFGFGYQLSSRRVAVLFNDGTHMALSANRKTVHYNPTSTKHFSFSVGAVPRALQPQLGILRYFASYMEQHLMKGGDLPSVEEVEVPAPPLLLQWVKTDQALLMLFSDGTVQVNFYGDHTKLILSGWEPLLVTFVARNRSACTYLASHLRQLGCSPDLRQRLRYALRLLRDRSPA
# Procedure: as §1
# FGFR1(h) = target: T27, FGFR1(h) (Homo sapiens, UniProt P11362); experiment: KinaseProfiler panel: FGFR1(h); conditions: residual activity, 5 μM inhibitor, Km ATP
# T27 construct: purchased Merck-Millipore (KinaseProfiler panel service)
# Procedure: as §1
# [2] = target: T28, recombinant human LIMK2 fragment 1-638 (Homo sapiens, UniProt P53671); experiment: LIMK2 kinase assay (Compound 1), anti-phospho-Ser3-cofilin detection; conditions: 360 μM ATP; GST-cofilin 1 substrate; chemiluminescence detection
# T28 construct: recombinant human LIMK2 fragment 1-638; 6His (N); purchased Carna Biosciences 09-106
# Procedure: Compounds were tested in a LIMK2 assay performed in a final volume of 12.5 μl containing 1.5 μl of compound or equivalent amount of DMSO as control, 1 μl (6.25 ng) of N-terminal 6His-tagged recombinant human LIMK2 fragment 1-638 (Carna Biosciences #09-106, in 20 mM MOPS pH=7.0, 1 mM EDTA, 0.01% NP-40, 5% glycerol, 0.1% 2-mercaptoethanol, 1 mg·mL^−1 Bovine Serum Albumin) and a mixture containing 8 mM MOPS pH=7.0, 200 μM EDTA, 110 μM of recombinant GST-cofilin 1, 10 mM MgCl2, and 360 μM ATP. Assays were performed at 30° C. for 10 min before termination by the addition of 40 μl of Laemmli buffer. Samples are then diluted into 1500 μL H2O and 100 μL are then diluted with 200 μL TBS. 5 μL are then spotted on a PVDF membrane (Merck-Millipore Immobilon P IPVH00010). After 20 min incubation RT, membrane was blocked with TBS, 0.1% Tween 20 and 5% BSA for 1 h RT under agitation. The membrane was rinsed 3 times 10 min RT under agitation with TBS, 0.1% Tween-20 (TBST) and then 1 h RT with anti-phospho-Ser3-cofilin (Cell Signaling Technology #3313, 1/1000 dilution) antibody diluted in TBS, 0.1% Tween 20 and 1% BSA. The membrane is then rinsed 3 times 10 min RT under agitation in TBST and incubated for 1 hour with anti-rabbit secondary antibody, horseradish peroxidase conjugated (Jackson Immunoresearch #711-036-152) under agitation at room temperature. […] IC50 LIMK2 is then determined.
structure (smiles),measurement,setting,value
"CC(C)(C)c1nc(-c2cccc(NS(=O)(=O)c3c(F)cccc3F)c2F)c(-c2ccnc(Nc3ccccc3)n2)s1 [Compound 1, N-(3-(2-(tert-butyl)-5-(2-(phenylamino)pyrimidin-4-yl)thiazol-4-yl)-2-fluorophenyl)-2,6-difluorobenzenesulfonamide]",activity at 5 µM,LIMK1(h),< 3%
same,activity at 5 µM,LKB1(h),≥ 50%
same,activity at 5 µM,TrkC(h),≥ 50%
same,activity at 5 µM,PAK4(h),≥ 50%
same,activity at 5 µM,EGFR(h),≥ 50%
same,activity at 5 µM,B-Raf(V599E)(h),3 to 10%
same,activity at 5 µM,CaMKIIδ(h),≥ 50%
same,activity at 5 µM,Flt3(D835Y)(h),≥ 50%
same,activity at 5 µM,TrkA(h),10 to 50%
same,activity at 5 µM,MRCKα(h),≥ 50%
same,activity at 5 µM,cKit(D816H)(h),10 to 50%
same,activity at 5 µM,PKBα(h),≥ 50%
same,activity at 5 µM,[1],≥ 50%
same,activity at 5 µM,"IGF-1R(h), activated",≥ 50%
same,activity at 5 µM,CaMKIβ(h),≥ 50%
same,activity at 5 µM,Flt4(h),3 to 10%
same,activity at 5 µM,ALK(h),≥ 50%
same,activity at 5 µM,TrkB(h),≥ 50%
same,activity at 5 µM,Ret(h),10 to 50%
same,activity at 5 µM,MKK4(m),≥ 50%
same,activity at 5 µM,Plk1(h),≥ 50%
same,activity at 5 µM,PAK6(h),≥ 50%
same,activity at 5 µM,PAK3(h),≥ 50%
same,activity at 5 µM,SAPK2a(h),≥ 50%
same,activity at 5 µM,Flt1(h),10 to 50%
same,activity at 5 µM,ROCK-II(h),≥ 50%
same,activity at 5 µM,Plk3(h),≥ 50%
same,activity at 5 µM,FGFR1(h),≥ 50%
same,IC50,[2],0.1 to 0.5 µM
